Test results reported in the NIST ThermoML archive (doi:10.1021/je400709f).

Experiment: excess molar enthalpy (molar enthalpy of mixing); xn = mol fraction of the nth substance listed
Settings: 298.15 K, 101 kPa, Liquid, Calvet calorimetry

CCCCCCCC[n+]1ccn(C)c1.F[B-](F)(F)F [1-methyl-3-octylimidazolium tetrafluoroborate] + CC(C)O
Settings	excess molar enthalpy [kcal/mol]
x1 = 0.139	0.337
x1 = 0.142	0.342
x1 = 0.144	0.348
x1 = 0.148	0.354
x1 = 0.151	0.36
x1 = 0.154	0.366
x1 = 0.158	0.373
x1 = 0.162	0.379
x1 = 0.165	0.386
x1 = 0.17	0.392
x1 = 0.173	0.397
x1 = 0.176	0.402
x1 = 0.179	0.406
x1 = 0.183	0.412
x1 = 0.186	0.417
x1 = 0.19	0.422
x1 = 0.194	0.428
x1 = 0.198	0.433
x1 = 0.202	0.439
x1 = 0.207	0.445
x1 = 0.212	0.452
x1 = 0.216	0.459
x1 = 0.221	0.467
x1 = 0.227	0.475
x1 = 0.232	0.484
x1 = 0.238	0.493
x1 = 0.244	0.502
x1 = 0.251	0.511
x1 = 0.258	0.528
x1 = 0.265	0.54
x1 = 0.273	0.552
x1 = 0.281	0.565
x1 = 0.29	0.578
x1 = 0.295	0.587
x1 = 0.301	0.597
x1 = 0.307	0.606
x1 = 0.314	0.614
x1 = 0.32	0.624
x1 = 0.327	0.633
x1 = 0.335	0.641
x1 = 0.342	0.65
x1 = 0.35	0.658
x1 = 0.359	0.665
x1 = 0.367	0.672
x1 = 0.377	0.677
x1 = 0.386	0.681
x1 = 0.396	0.683
x1 = 0.407	0.684
x1 = 0.418	0.683
x1 = 0.43	0.682
x1 = 0.443	0.68
x1 = 0.456	0.677
x1 = 0.471	0.672
x1 = 0.486	0.666
x1 = 0.502	0.659
x1 = 0.519	0.65
x1 = 0.538	0.638
x1 = 0.558	0.625
x1 = 0.566	0.619
x1 = 0.575	0.612
x1 = 0.584	0.604
x1 = 0.593	0.596
x1 = 0.602	0.587
x1 = 0.612	0.578
x1 = 0.622	0.567
x1 = 0.632	0.557
x1 = 0.643	0.545
x1 = 0.654	0.533
x1 = 0.666	0.52
x1 = 0.678	0.506
x1 = 0.69	0.491
x1 = 0.703	0.476
x1 = 0.716	0.459
x1 = 0.73	0.441
x1 = 0.744	0.421
x1 = 0.759	0.401
x1 = 0.775	0.378
x1 = 0.791	0.354
x1 = 0.808	0.329
x1 = 0.825	0.301
x1 = 0.844	0.273
x1 = 0.863	0.241
x1 = 0.883	0.208
x1 = 0.904	0.171
x1 = 0.927	0.134
x1 = 0.95	0.0913
x1 = 0.974	0.048

CCCCCCCC[n+]1ccn(C)c1.F[B-](F)(F)F [1-methyl-3-octylimidazolium tetrafluoroborate] + CCCCCO
Settings	excess molar enthalpy [kcal/mol]
x1 = 0.213	0.35
x1 = 0.218	0.358
x1 = 0.223	0.365
x1 = 0.229	0.373
x1 = 0.234	0.38
x1 = 0.24	0.388
x1 = 0.244	0.393
x1 = 0.249	0.398
x1 = 0.254	0.404
x1 = 0.259	0.41
x1 = 0.264	0.416
x1 = 0.269	0.423
x1 = 0.275	0.429
x1 = 0.281	0.435
x1 = 0.287	0.443
x1 = 0.293	0.45
x1 = 0.3	0.457
x1 = 0.306	0.464
x1 = 0.314	0.472
x1 = 0.321	0.481
x1 = 0.329	0.49
x1 = 0.338	0.5
x1 = 0.346	0.51
x1 = 0.356	0.52
x1 = 0.365	0.53
x1 = 0.372	0.537
x1 = 0.378	0.544
x1 = 0.385	0.552
x1 = 0.392	0.559
x1 = 0.4	0.567
x1 = 0.407	0.574
x1 = 0.415	0.581
x1 = 0.424	0.588
x1 = 0.432	0.595
x1 = 0.441	0.6
x1 = 0.451	0.604
x1 = 0.46	0.607
x1 = 0.471	0.608
x1 = 0.481	0.606
x1 = 0.492	0.604
x1 = 0.504	0.601
x1 = 0.516	0.597
x1 = 0.529	0.592
x1 = 0.542	0.586
x1 = 0.557	0.578
x1 = 0.572	0.568
x1 = 0.587	0.558
x1 = 0.604	0.546
x1 = 0.622	0.532
x1 = 0.64	0.516
x1 = 0.648	0.508
x1 = 0.656	0.501
x1 = 0.664	0.492
x1 = 0.673	0.484
x1 = 0.681	0.475
x1 = 0.69	0.465
x1 = 0.699	0.455
x1 = 0.708	0.444
x1 = 0.718	0.433
x1 = 0.728	0.421
x1 = 0.738	0.408
x1 = 0.748	0.396
x1 = 0.759	0.382
x1 = 0.77	0.367
x1 = 0.781	0.352
x1 = 0.792	0.336
x1 = 0.804	0.319
x1 = 0.817	0.301
x1 = 0.829	0.283
x1 = 0.842	0.263
x1 = 0.856	0.242
x1 = 0.87	0.22
x1 = 0.884	0.197
x1 = 0.899	0.173
x1 = 0.914	0.148
x1 = 0.93	0.12
x1 = 0.947	0.0927
x1 = 0.964	0.0626
x1 = 0.982	0.032

CCCCCCCC[n+]1ccn(C)c1.F[B-](F)(F)F [1-methyl-3-octylimidazolium tetrafluoroborate] + CCCCO
Settings	excess molar enthalpy [kcal/mol]
x1 = 0.191	0.349
x1 = 0.195	0.355
x1 = 0.2	0.362
x1 = 0.204	0.369
x1 = 0.209	0.376
x1 = 0.214	0.384
x1 = 0.219	0.391
x1 = 0.223	0.397
x1 = 0.228	0.402
x1 = 0.233	0.407
x1 = 0.238	0.413
x1 = 0.243	0.419
x1 = 0.248	0.425
x1 = 0.254	0.431
x1 = 0.259	0.438
x1 = 0.266	0.446
x1 = 0.272	0.453
x1 = 0.279	0.461
x1 = 0.286	0.469
x1 = 0.293	0.48
x1 = 0.301	0.492
x1 = 0.309	0.504
x1 = 0.318	0.516
x1 = 0.328	0.528
x1 = 0.337	0.541
x1 = 0.348	0.554
x1 = 0.359	0.566
x1 = 0.371	0.577
x1 = 0.383	0.586
x1 = 0.392	0.593
x1 = 0.4	0.599
x1 = 0.41	0.605
x1 = 0.419	0.608
x1 = 0.429	0.611
x1 = 0.44	0.611
x1 = 0.451	0.611
x1 = 0.462	0.608
x1 = 0.474	0.605
x1 = 0.487	0.6
x1 = 0.501	0.596
x1 = 0.515	0.589
x1 = 0.53	0.582
x1 = 0.546	0.571
x1 = 0.563	0.56
x1 = 0.582	0.545
x1 = 0.601	0.531
x1 = 0.622	0.511
x1 = 0.644	0.49
x1 = 0.653	0.482
x1 = 0.663	0.474
x1 = 0.673	0.464
x1 = 0.683	0.455
x1 = 0.693	0.443
x1 = 0.704	0.429
x1 = 0.715	0.417
x1 = 0.727	0.405
x1 = 0.739	0.392
x1 = 0.751	0.378
x1 = 0.764	0.363
x1 = 0.777	0.348
x1 = 0.79	0.331
x1 = 0.804	0.313
x1 = 0.819	0.294
x1 = 0.834	0.275
x1 = 0.85	0.254
x1 = 0.866	0.231
x1 = 0.883	0.208
x1 = 0.9	0.18
x1 = 0.919	0.149
x1 = 0.938	0.114
x1 = 0.958	0.0796
x1 = 0.978	0.0411
